Laboratory results published in the supplement of paper PMC10307832.

Key:
Test in all cases: relative viability (nuclei count vs DMSO), 5 days (fraction); higher = more cells survive
[1] = compound: C[C@]1(c2nc3c(C(N)=O)cccc3[nH]2)CCCN1 [Veliparib] + Nc1nc2[nH]cc(CCc3ccc(C(=O)N[C@@H](CCC(=O)O)C(=O)O)cc3)c2c(=O)[nH]1 [Pemetrexed] (partner 0.2 µM)
Procedure, shortened: (§1)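 Dosing by pin tool came one day after lung cancer cell lines were seeded in 1536-well plates, using either one drug or a fixed anchor-drug dose plus five library-drug doses (not always all listed) in √10 steps. After 5 days, nuclei were counted on 4× images. Relative viability is treated-well nuclei count divided by vehicle-well nuclei count, and values are medians of duplicate plates.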

[2] = compound: COC1=CC=C(C=C1)CN2C=CC3=C2C=C(C=C3)C(=O)NO + COc1cccc2cc(-c3nc([C@H]4CC[C@H](C(=O)O)CC4)n4ncnc(N)c34)[nH]c12 [OSI-027] (partner 0.5 µM)
Procedure, shortened: as §1

[3] = compound: C[C@]1(c2nc3c(C(N)=O)cccc3[nH]2)CCCN1 [Veliparib]
Procedure, shortened: (§2)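 Acceptance criteria were a control CV below 25% and at least one doubling per plate. Lung cancer cell lines in 1536-well plates got five library-drug doses (not always all listed) √10 apart by pinning and were left 5 days with no medium change. Viability divides treated-well nuclei by vehicle-well nuclei and is the median across plates. Nuclei were counted by MetaXpress from 4× Hoechst images.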

[4] = compound: COC1=CC=C(C=C1)CN2C=CC3=C2C=C(C=C3)C(=O)NO
Procedure, shortened: as §2

NCI-H2342
relative viability ([1]; first compound 0.02 µM): 0.675
relative viability ([1]; first compound 0.06325 µM): 0.721
relative viability ([1]; first compound 0.2 µM): 0.744
relative viability ([1]; first compound 0.6325 µM): 0.784
relative viability ([1]; first compound 2 µM): 0.771
relative viability ([2]; first compound 0.08 µM): 0.61
relative viability ([2]; first compound 0.253 µM): 0.66
relative viability ([2]; first compound 0.8 µM): 0.603
relative viability ([2]; first compound 2.53 µM): 0.57
relative viability ([2]; first compound 8 µM): 0.655
relative viability ([3]; 0.02 µM): 0.966
relative viability ([3]; 0.06325 µM): 0.968
relative viability ([3]; 0.2 µM): 0.94
relative viability ([3]; 0.6325 µM): 0.873
relative viability ([3]; 2 µM): 0.979
relative viability ([4]; 0.08 µM): 0.946
relative viability ([4]; 0.253 µM): 0.973
relative viability ([4]; 0.8 µM): 0.992
relative viability ([4]; 2.53 µM): 0.997
relative viability ([4]; 8 µM): 0.827

NCI-H2347
relative viability ([1]; first compound 0.02 µM): 0.434
relative viability ([1]; first compound 0.06325 µM): 0.456
relative viability ([1]; first compound 0.2 µM): 0.425
relative viability ([1]; first compound 0.6325 µM): 0.471
relative viability ([1]; first compound 2 µM): 0.445
relative viability ([2]; first compound 0.08 µM): 0.479
relative viability ([2]; first compound 0.253 µM): 0.433
relative viability ([2]; first compound 0.8 µM): 0.473
relative viability ([2]; first compound 2.53 µM): 0.481
relative viability ([2]; first compound 8 µM): 0.402
relative viability ([3]; 0.02 µM): 1.08
relative viability ([3]; 0.06325 µM): 0.936
relative viability ([3]; 0.2 µM): 0.94
relative viability ([3]; 0.6325 µM): 0.971
relative viability ([3]; 2 µM): 0.898
relative viability ([4]; 0.08 µM): 0.911
relative viability ([4]; 0.253 µM): 1.06
relative viability ([4]; 0.8 µM): 1.1
relative viability ([4]; 2.53 µM): 1.17
relative viability ([4]; 8 µM): 0.974

NCI-H2405
relative viability ([1]; first compound 0.02 µM): 1.08
relative viability ([1]; first compound 0.2 µM): 1.11
relative viability ([1]; first compound 0.6325 µM): 0.978
relative viability ([1]; first compound 2 µM): 1.04
relative viability ([2]; first compound 0.08 µM): 0.633
relative viability ([2]; first compound 0.253 µM): 0.65
relative viability ([2]; first compound 0.8 µM): 0.638
relative viability ([2]; first compound 2.53 µM): 0.664
relative viability ([2]; first compound 8 µM): 0.606
relative viability ([3]; 0.02 µM): 0.973
relative viability ([3]; 0.06325 µM): 0.89
relative viability ([3]; 0.2 µM): 1.01
relative viability ([3]; 0.6325 µM): 1
relative viability ([3]; 2 µM): 0.691
relative viability ([4]; 0.08 µM): 0.908
relative viability ([4]; 0.253 µM): 0.934
relative viability ([4]; 0.8 µM): 1
relative viability ([4]; 2.53 µM): 1.06
relative viability ([4]; 8 µM): 0.913

NCI-H3122
relative viability ([1]; first compound 0.02 µM): 0.194
relative viability ([1]; first compound 0.06325 µM): 0.203
relative viability ([1]; first compound 0.2 µM): 0.19
relative viability ([1]; first compound 0.6325 µM): 0.211
relative viability ([1]; first compound 2 µM): 0.2
relative viability ([2]; first compound 0.253 µM): 1.01
relative viability ([2]; first compound 0.8 µM): 0.945
relative viability ([2]; first compound 2.53 µM): 0.93
relative viability ([2]; first compound 8 µM): 0.908
relative viability ([3]; 0.02 µM): 1
relative viability ([3]; 0.06325 µM): 1.01
relative viability ([3]; 0.2 µM): 0.974
relative viability ([3]; 0.6325 µM): 0.957
relative viability ([3]; 2 µM): 1
relative viability ([4]; 0.08 µM): 0.971
relative viability ([4]; 0.253 µM): 0.984
relative viability ([4]; 0.8 µM): 0.954
relative viability ([4]; 2.53 µM): 0.989
relative viability ([4]; 8 µM): 0.955

PC-3 [JPC-3]
relative viability ([1]; first compound 0.02 µM): 1.01
relative viability ([1]; first compound 0.2 µM): 1.33
relative viability ([1]; first compound 0.6325 µM): 1.28
relative viability ([1]; first compound 2 µM): 1.08
relative viability ([2]; first compound 0.08 µM): 0.766
relative viability ([2]; first compound 0.253 µM): 0.781
relative viability ([2]; first compound 0.8 µM): 0.726
relative viability ([2]; first compound 2.53 µM): 0.813
relative viability ([2]; first compound 8 µM): 0.761
relative viability ([3]; 0.02 µM): 1
relative viability ([3]; 0.06325 µM): 0.968
relative viability ([3]; 0.2 µM): 1.05
relative viability ([3]; 0.6325 µM): 1.04
relative viability ([3]; 2 µM): 1.06
relative viability ([4]; 0.08 µM): 1
relative viability ([4]; 0.253 µM): 1.03
relative viability ([4]; 0.8 µM): 1.11
relative viability ([4]; 2.53 µM): 1.08
relative viability ([4]; 8 µM): 0.968
